# Data as given in patent US20240299554A1, “PRODRUGS WITH 1-(DISULFANYL)ALKYLOXY-CARBONYL UNITS” (PHARMACYTICS B.V., priority 2021, published 2024).
# How the values were obtained:
# [1] = Oral bioavailability of conjugates in female Beagle dogs (AUC of parent drug); type: in vivo; details: for Δ AUC (increase of AUC of parent drug derived from conjugate compared to parent drug as such): female Beagle dogs, single oral dose 7.5 or 15 μmol/kg by gavage, 24 h sampling, Table 1a; for generation of parent drug after oral administration: oral administration to beagle dogs
# Experimental: Relative and absolute bioavailability may be determined in different animal models and according to different protocols. The following protocol is typical for determining bioavailability in female Beagle dogs and was used in the present invention. The animals were deprived from food over a time period of 8 h prior to administration of the compounds according to the present invention and over a time period of 2 h after administration of the compounds according to the present invention. Water was supplied without limitation. On the study day, the animals received the compounds according to the present invention, at a single dose of 7.5 or 15 μmol/kg, by oral gavage, formulated in mixtures of propylene glycol, ethanol and 0.9% NaCl+5% mannitol in water. Blood samples were collected from the jugular vein on the following time points: 0.25, 0.5, 1, 2, 4, 8 and 24 hours after dosing of the compounds according to the present invention. […] Pharmacokinetic parameters were calculated from concentration versus time data using non-compartmental pharmacokinetic methods using Phoenix pharmacokinetic software. Data are compared to the parent drugs to establish improvement of its oral bioavailability by the compounds according to the present invention.
# [2] = In vitro treatment of conjugates with glutathione, release of parent drug followed by LC-MS at 254 nm; type: in vitro ADME; details: for formation of parent drug on in vitro treatment with glutathione: glutathione 5 eq., phosphate buffer pH=7.6, 37° C. (for 102); for fate of glutathione adduct formed during glutathione treatment: adduct formed in situ from the conjugate
# Text: (§1) FIGS. 1A and 1B are graphs showing the release of the drug Cinacalcet after an in vitro treatment of Cinacalcet conjugate 102 (not according to the invention) with glutathione. […] FIG. 1B represent the concentration of Cinacalcet conjugate 102 and Cinacalcet versus time. The presence of the compounds was followed at 254 nm by LC-MS.
# as §1, with “3A” for “1A”, “3B” for “1B”, “60 (according” for “102 (not according”, “60” for “102”
# The results are shown in FIGS. 1A and B. In FIG. 1A is shown the disappearance of conjugate 102 over time after treatment with glutathione, the formation of Cinacalcet and the appearance and partial disappearance of an intermediate (HS-Et-Cinacalcet) and a glutathione adduct (GSS—Et-Cinacalcet)—see below.
SMILES,Δ AUC (increase of AUC of parent drug derived from conjugate compared to parent drug as such) [1],formation of parent drug on in vitro treatment with glutathione [2],generation of parent drug after oral administration [1],further results
CCCN(COCCSSCOC(=O)N(CCCc1cccc(C(F)(F)F)c1)[C@H](C)c1cccc2ccccc12)C(=O)O[C@@H]1O[C@H](CO)[C@H](O)[C@H](O)[C@H]1O [Compound 93a],+++ (+++ denotes a >4-fold increase of the AUC compared to the parent drug),,,
CN(CC[C@@H](Oc1cccc2ccccc12)c1cccs1)C(=O)OCSSCCO[C@@H]1O[C@H](CO)[C@H](O)[C@H](O)[C@H]1O [Compound 61],++ (++ denotes a 2 to 4-fold increase of the AUC compared to the parent drug),very fast and complete formation of Duloxetine,readily resulted in the generation of significant amounts of duloxetine,
C[C@H](c1cccc2ccccc12)N(CCCc1cccc(C(F)(F)F)c1)C(=O)OCSSCCO[C@@H]1O[C@H](CO)[C@@H](O)[C@H](O)[C@H]1O [Compound 60],++ (++ denotes a 2 to 4-fold increase of the AUC compared to the parent drug),very fast and complete formation of Cinacalcet,readily resulted in the generation of significant amounts of cinacalcet,
C[C@H](c1cccc2ccccc12)N(CCCc1cccc(C(F)(F)F)c1)C(=O)OCCSSCCO[C@@H]1O[C@H](CO)[C@@H](O)[C@H](O)[C@H]1O [Compound 102],,very slow and incomplete formation of Cinacalcet,did not produce any detectable amount of the drug Cinacalcet,"conversion of pro-drug into parent drug within 8 hours ([2]; glutathione treatment): far from being completely converted into Cinacalcet; conversion of pro-drug into parent drug in 23 hours ([2]; glutathione treatment, 23 hours): less than half"
C[C@H](c1cccc2ccccc12)N(CCCc1cccc(C(F)(F)F)c1)C(=O)OCSSCCNC(=O)O[C@@H]1O[C@H](CO)[C@@H](O)[C@H](O)[C@H]1O [Compound 90],+ (+ denotes a 1.1 to 2-fold increase of the AUC compared to parent drug),,,
CN(CC[C@@H](Oc1cccc2ccccc12)c1cccs1)C(=O)OCCSSCCO[C@@H]1O[C@H](CO)[C@@H](O)[C@H](O)[C@H]1O [Compound 103],,very slow and incomplete formation of duloxetine,did not produce any detectable amount of Duloxetine,conversion of pro-drug into parent drug within 8 hours ([2]; glutathione treatment): less than half
C[C@H](c1cccc2ccccc12)N(CCCc1cccc(C(F)(F)F)c1)C(=O)OCCSSC[C@H](NC(=O)CC[C@H](N)C(=O)O)C(=O)NCC(=O)O [GSS-Et-Cinacalcet],,,,fate of glutathione adduct formed during glutathione treatment [2]: somewhat more stable than the mercaptoethyl carbamate
CCCN(COCCSSCOC(=O)N(CCCc1cccc(C(F)(F)F)c1)[C@H](C)c1cccc2ccccc12)C(=O)O[C@@H]1O[C@H](CF)[C@@H](O)[C@H](O)[C@H]1O [Compound 92b],+++ (+++ denotes a >4-fold increase of the AUC compared to the parent drug),,,
CCCN(COCCSSCOC(=O)N(CCCc1cccc(C(F)(F)F)c1)[C@H](C)c1cccc2ccccc12)C(=O)O[C@@H]1O[C@H](CO)[C@@H](O)[C@H](O)[C@H]1O [Compound 92a],+++ (+++ denotes a >4-fold increase of the AUC compared to the parent drug),,,
CN(CC[C@H](Oc1cccc2ccccc12)c1cccs1)C(=O)OCSSC[C@H](NC(=O)CC[C@H](N)C(=O)O)C(=O)NCC(=O)O [GSS-Me-Duloxetine],,,,fate of glutathione adduct formed during glutathione treatment [2]: completely converted into Duloxetine within one hour
C[C@H](c1cccc2ccccc12)N(CCCc1cccc(C(F)(F)F)c1)C(=O)OCSSC[C@H](NC(=O)CC[C@H](N)C(=O)O)C(=O)NCC(=O)O [GSS-Me-Cinacalcet],,,,fate of glutathione adduct formed during glutathione treatment [2]: completely converted into Cinacalcet within one hour
